Here are results for 14 compounds from the SangsterLogP compilation.

A short description of the data set: method code SF-AS, from Bernabe, T.; Forni, F.; Bellei, S.; Cameroni, R. (1980). Partition coefficients of a series of substituted benzoic acids. Atti Soc. Nat. Mat Modena, 111(1)63-72. Conditions: pH 1.0.

On to `Nc1c(Cl)cc(Cl)cc1C(=O)O`, for which the logD (in general, the decadic logarithm of the distribution of all forms, ionised or not, between an organic phase and buffer at a given pH) was found to be 1.82.

For `O=C(O)c1cc(Cl)ccc1[N+](=O)[O-]`, the logD worked out at 2.13.

As to `Nc1cc([N+](=O)[O-])ccc1C(=O)O`, the logD was 1.91.

For the compound `O=C(O)c1ccc(O)c([N+](=O)[O-])c1`, the logD was found to be 1.85.

`O=C(O)c1ccc(Cl)cc1[N+](=O)[O-]` displayed a logD of 2.08.

In the case of `O=C(O)c1ccc(O)c(Cl)c1`, the logD turned out to be 2.41.

Consider `COc1cccc(C(=O)O)c1O`, for which the logD was 1.94.

In turn, `O=C(O)c1cc([N+](=O)[O-])c(Cl)c([N+](=O)[O-])c1` yielded a logD of 2.5.

`Cc1cccc(C(=O)O)c1O` displayed a logD of 2.86.

Take `O=C(O)c1cc([N+](=O)[O-])cc([N+](=O)[O-])c1O`: the logD was 1.71.

`COc1cc(OC)cc(C(=O)O)c1` had a logD of 2.19.

As for `O=C(O)c1ccc([N+](=O)[O-])c(O)c1`, the logD came out at 1.98.

In turn, `O=C(O)c1cc(I)ccc1O` displayed a logD of 2.63.

In turn, `COc1ccc(C(=O)O)cc1OC` had a logD of 1.61.
